Results reported in the NIST ThermoML archive (doi:10.1016/j.jct.2008.01.025).
± gives the expanded uncertainty stated by the source.

Experiments:
[1] = refractive index (Na D-line) (dimensionless); conditions: 298.15 K; 101.33 kPa; Liquid; Standard Abbe refractometry
[2] = 298.15 K, 101.33 kPa, Liquid

Row | Structure (SMILES) | refractive index [1] | mass density ([2]; Vibrating tube method) [kg/m3] | mass density [2] [kg/m3]
1 | CCCCCCCC[n+]1ccn(C)c1.F[B-](F)(F)F [1-methyl-3-octylimidazolium tetrafluoroborate] | 1.43329 ± 0.00069 | 1104.42 ± 2.3 | –
2 | CCCCCCCCCCCC [dodecane] | 1.42011 ± 0.0004 | – | 745.32 ± 0.91
3 | CCCCCCC [heptane] | 1.38517 ± 0.00036 | – | 679.466 ± 0.66
4 | CCCCCCCCCCCCCCCC [hexadecane] | 1.43232 ± 0.0004 | – | 771.15 ± 0.85
5 | c1ccsc1 [thiophene] | 1.52581 ± 0.00036 | – | 1058.5 ± 0.28
